From US20070128586A1, “Therapeutic, prophylactic and diagnostic agents” (priority 2003, published 2007)

Experiments:
sTNF RI (p55) = test: Serum sTNFR assay, sTNF RI (p55), cirrhotic patients; type: in vivo, human; conditions: Child-Pugh B/C patients, n = 7; controls 1643, no lactulose 3852
Description: (§1) Peripheral blood was drawn using pyrogen-free needles, syringes and containers (Becton-Dickinson, Singapore). Plasma and serum were separated in a refrigerated centrifuge at 4° C. and stored at −70° C. in pyrogen-free polyethylene cryotubes (Nunc, Denmark) until analysis within six weeks of collection. Whole blood was used for determination of TLR expression on peripheral blood monocytes. Serum sTNF RI (p55) and sTNF RII (p75) were measured using Quantikine HS Human sTNFR Immunoassays (R&D Systems Inc., Minneapolis, USA), according to the manufacturer's instructions.

TNF-α = test: Serum TNF-α assay (Quantikine HS immunoassay), cirrhotic patients; type: in vivo, human; conditions: Child-Pugh B/C patients, n = 7; controls 1.7, no lactulose 3.1
TLR-2 = test: Flow cytometry for TLR-2 expression on CD14+ve peripheral blood monocytes, cirrhotic patients; type: in vivo, human; conditions: Child-Pugh B/C patients, n = 7; ratio of geometric mean fluorescence to mean control values
TLR-4 = test: Flow cytometry for TLR-4 expression on CD14+ve peripheral blood monocytes, cirrhotic patients; type: in vivo, human; conditions: Child-Pugh B/C patients, n = 7; ratio of geometric mean fluorescence to mean control values
Excerpt: Isotype matched non-binding controls were used for comparison. Ten thousand CD14^+ve cells were acquired for each sample and dead cells were gated out based on their light scatter properties on FACSCaliber flow cytometer (Becton Dickinson, USA). At least two control patients were used for standardization purposes every flow cytometry session. TLR-2 and TLR-4 values were expressed as a ratio of the geometric mean fluorescence of individual study patients to mean control values for that session.

PBMCs [1] = test: In vitro production of TNF-α by PBMCs stimulated with endotoxin; type: cell-based, human; conditions: Child-Pugh B/C patients, n = 7; endotoxin 10 ng/mL, 20 h; ratio stimulated to unstimulated cells
PBMCs [2] = test: In vitro production of TNF-α by PBMCs stimulated with SEB; type: cell-based, human; conditions: Child-Pugh B/C patients, n = 7; SEB 10 ng/mL, 20 h; ratio stimulated to unstimulated cells
sTNF RII (p75) = test: Serum sTNFR assay, sTNF RII (p75), cirrhotic patients; type: in vivo, human; conditions: Child-Pugh B/C patients, n = 7; controls 2438, no lactulose 5933
Description: as §1

[3] = Plasma endotoxin assay (chromogenic limulus amoebocyte lysate), cirrhotic patients; type: in vivo, human
HBV = HBV DNA in chronic Hepatitis B patients (Cobas Amplicor HBV Monitor Test); type: in vivo, Hepatitis B virus; conditions: five CHB patients; fell from >200,000 following treatment with lamivudine
Description: Eighteen non-cirrhotic patients with chronic Hepatitis B (CHB) and on-going viral replication (HBV DNA >200,000 genomes/mL, n=12 and 200-10,000 genomes/mL, n=6; Cobas Amplicor HBV Monitor (trademark) Test, USA) and 32 healthy control subjects were studied. TLR-2 and TLR-4 expression on CD14^+ve peripheral blood mononuclear cells (PBMC's) was measured by flow cytometry using anti-CD14 (Becton Dickinson) and anti-TLR-2 and anti-TLR-4 (eBioscience, USA) monoclonal antibodies. TLR expression was reassessed in five patients in whom HBV DNA fell from >200,000 to <200 genomes/mL following treatment with lamivudine. In vitro TLR-2 expression by PBMCs was measured in five control subjects at baseline and following stimulation for 20 h by partially purified recombinant HBV. […] TLR-2 expression normalised in each of the five lamivudine-treated CHB patients in whom HBV DNA became undetectable. In vitro expression of TLR-2 fell in a concentration-dependent manner following exposure to recombinant HBV.

OC[C@H]1O[C@@H](O[C@@H]2[C@@H](CO)OC(O)(CO)[C@H]2O)[C@H](O)[C@@H](O)[C@H]1O (mixture of isomers) [lactulose]
Serum soluble TNF receptor I, Median (sTNF RI (p55)): 3878 pg/mL
Serum TNF-α, Median (TNF-α): 4.2 pg/mL
Expression of TLR-2 on CD14+ve PBMCs, Median (TLR-2): 1.29
Expression of TLR-4 on CD14+ve PBMCs, Median (TLR-4): 1.06
In vitro production of TNF-α by PBMCs in response to endotoxin, Median (PBMCs [1]): 3.1
In vitro production of TNF-α by PBMCs in response to SEB, Median (PBMCs [2]): 1.5
Serum soluble TNF receptor II, Median (sTNF RII (p75)): 5440 pg/mL
Plasma endotoxin, Median ([3]; Child-Pugh B/C patients, n = 7, controls 25, no lactulose 49): 13 pg/mL
Plasma endotoxin values compared with control subjects ([3]; subgroup of Child-Pugh B and C patients treated with lactulose): not significantly different from those in control subjects

Nc1ccn([C@@H]2CS[C@H](CO)O2)c(=O)n1 [lamivudine]
HBV DNA following treatment (HBV): < 200 genomes/mL
